Like-named read-outs stand apart in the source and are kept apart here.
Legend:
[1] = Plasma protein binding by equilibrium dialysis; assay type: in vitro ADME; conditions: pH 7.4
Method: Protein binding of [^3H]SCY-078 in mouse, rat, dog, and human plasma was determined by means of equilibrium dialysis and liquid scintillation counting. Tritium-labeled SCY-078 in ethanol was added to unlabeled SCY-078 in methanol to prepare stock solutions at 10, 100, and 1,000 μM SCY-078 with constant activity.
Protein binding was determined against isotonic phosphate-buffered saline (pH 7.4) at 37°C for 24 h. Aliquots (10 μl) of each stock solution were added to pooled DBA mouse (n = >10 animals), Sprague-Dawley rat, beagle dog, or human plasma (1 ml) to achieve final total concentrations of 0.1, 1, and 10 μM SCY-078. The final concentration of the organic solvent was 0.9% (vol/vol). Dialysis was performed in 1-ml acrylic dialysis cells (Scienceware, South Wayne, NJ), where plasma and buffer were separated by a 12.4-kDa cutoff membrane (Sigma, St. Louis, MO). After incubation, aliquots (100 μl) of plasma and phosphate buffer were counted for radioactivity (Beckman LS6500 liquid scintillation counter), and unbound fractions of SCY-078 were estimated based on the following calculation: unbound fraction = radioactivity (dpm/0.1 ml) in buffer/total radioactivity (dpm/0.1 ml) in plasma.

[2] = system: C. parapsilosis isolate CP 20519.069; set-up: method as in PMID 25512406; conditions: stasis ref 6; cited from earlier work
[3] = In vitro metabolic stability in hepatic microsomes; assay type: in vitro ADME, dog; conditions: for remaining at 0.5 h, 1 µM: read-out: % remaining after 30 min
Method: The metabolic stability of SCY-078 was assessed after incubation with mouse, rat, dog, and human liver microsomes (Table 2) ([10]). […] The half-lives in rodent, dog, and human liver microsomes were ≥125, ≥29, and ≥42 min, respectively.
The metabolic stability of SCY-078 was evaluated with male and female mouse, male rat, male and female dog, and mixed-gender human liver microsomes (XenoTech, Lenexa, KS). SCY-078 (1 μM) was incubated with pooled liver microsomes (0.5 mg protein/ml) for 0, 5, 10, 20, and 30 min at 37°C in the presence of NADPH. Aliquots were taken at each sampling time point and extracted with 5 volumes of ice-cold acetonitrile containing the internal standard (d9-SCY-078, 125 ng/ml). Supernatants from the incubation mixtures were analyzed for the parent compound by LC-MS/MS according to the conditions described below. The metabolic competency of microsomal preparations was established using the control compounds 7-ethoxycoumarin, propranolol, and verapamil. The in vitro intrinsic clearance (CLint), the CLint scaled to the in vivo intrinsic clearance (CL′int), and the half-life were determined for SCY-078 incubated with microsomes from each species.

in vivo [4] = assay: in vivo; set-up: species or system female CD-1 mice; conditions: female, CD-1, mouse
Method: (§1) The pharmacokinetics and bioavailability of SCY-078 were evaluated in uninfected mouse, rat, and dog after p.o. and i.v. administration. The in vivo phases of the PK studies were performed at either […] (Waltham, MA) or MPI Research (Mattawan, MI) after an Institutional Animal Care and Use Committee (IACUC) review. […] and MPI Research are Association for Assessment and Accreditation of Laboratory Animal Care International (AAALAC)-approved facilities. […] The peak concentration (Cmax), the time to maximum concentration (Tmax), the half-life, and the AUC were determined from composite mean plasma concentration-time data for rodents and individual plasma concentration-time data for dogs. All doses and plasma concentrations of SCY-078 are presented as free base.

in vivo [5] = assay: in vivo; set-up: species or system beagle dogs; conditions: beagle, dog; for half-life: t1/2
Method: as §1, with “base. Treatment naive male and female beagle dogs (n = 3/sex/group/time point) weighing 8 to 12 kg (males) or 6 to 10 kg (females) were given a single 5-mg/kg dose of SCY-078 as an i.v. injection over 5 min or an oral dose of 20 mg/kg as described above. Blood specimens were collected from the jugular vein at various time intervals to 72 h postdosing and processed as described above.” for “base.”

[6] = both sexes, pooled liver microsomes, dog liver microsomes, summary of male and female
[7] = pooled liver microsomes, female dog liver microsomes
[8] = pooled liver microsomes, male dog liver microsomes

CC(C)[C@@H](C)[C@@]1(C)CC[C@]2(C)[C@H]3CC[C@@H]4[C@@]5(COC[C@@]4(C)[C@@H](OC[C@](C)(N)C(C)(C)C)[C@H](n4ncnc4-c4ccncc4)C5)C3=CC[C@@]2(C)[C@@H]1C(=O)O [SCY-078, (1S,4aR,6aS,7R,8R,10aR,10bR,12aR,14R,15R)-15-[[(2R)-2-amino-2,3,3-trimethylbutyl]oxy]-8-[(1R)-1,2-dimethylpropyl]-14-[5-(4-pyridinyl)-1H-1,2,4-triazol-1-yl]-1,6,6a,7,8,9,10,10a,10b,11,12,12a-dodecahydro-1,6a,8,10a-tetramethyl-4H-1,4a-propano-2H-phenanthro[1,2-c]pyran-7-carboxylic acid]
fraction unbound at 24 h ([1]; DBA, mouse plasma): 0.002
fraction unbound at 24 h, 0.1 μM ([1]; DBA, mouse plasma): 0.002
fraction unbound at 24 h, 1 μM ([1]; DBA, mouse plasma): 0.002
fraction unbound at 24 h, 10 μM ([1]; DBA, mouse plasma): 0.002
fraction unbound at 24 h, 0.1 μM ([1]; Sprague-Dawley, rat plasma): 0.002
fraction unbound at 24 h, 1 μM ([1]; Sprague-Dawley, rat plasma): 0.003
fraction unbound at 24 h, 10 μM ([1]; Sprague-Dawley, rat plasma): 0.002
fraction unbound at 24 h, 0.1 μM ([1]; beagle, dog plasma): 0.004
fraction unbound at 24 h, 1 μM ([1]; beagle, dog plasma): 0.005
fraction unbound at 24 h, 10 μM ([1]; beagle, dog plasma): 0.003
fraction unbound at 24 h, 0.1 μM ([1]; human plasma): 0.002
fraction unbound at 24 h, 1 μM ([1]; human plasma): 0.003
fraction unbound at 24 h, 10 μM ([1]; human plasma): 0.004
Total drug AUC0–24 target [2]: ~18.8 µM·h
half-life at 1 μM [3, 6]: ≥ 0.483 h
microsomal CLint at 1 μM [3, 6]: ≤ 48 µL/min/mg
CLint scaled at 1 μM ([3]; both sexes, pooled liver microsomes, dog liver microsomes, summary of male and female, read-out: CL′int (CLint scaled to in vivo intrinsic clearance)): ≤ 0.069 mL/min/kg
remaining at 0.5 h, 1 µM ([3]; female dog liver microsomes): 84%
remaining at 0.5 h, 1 µM ([3]; male dog liver microsomes): 49%
half-life at 1 μM [3, 7]: 1.53 h
microsomal CLint at 1 μM [3, 7]: 15 µL/min/mg
half-life at 1 μM [3, 8]: 0.483 h
microsomal CLint at 1 μM [3, 8]: 48 µL/min/mg
bioavailability (in vivo [4]; 6.25 mg/kg): > 41%
bioavailability (in vivo [4]; 12 mg/kg): > 51%
Dose normalized AUC0–∞ to a 1-mg/kg dose (in vivo [4]; iv): 1.4 µg·h/mL
AUC(0-inf) (in vivo [4]; iv, 1 mg/kg): 1460 ng·h/mL
Vd ss (in vivo [4]; iv, 1 mg/kg): 5.3 L/kg
clearance (in vivo [4]; iv, 1 mg/kg): 11.3 mL/min/kg
AUC(0-t) (in vivo [4]; iv, 1 mg/kg, AUC0–24): 1390 ng·h/mL
Vd (in vivo [4]; iv, 1 mg/kg, Vd ss): 5.26 L/kg
half-life (in vivo [4]; iv, 1 mg/kg, t1/2): ~5.5 h
concentration at 4 h (in vivo [4]; po): 1490 ± 690 ng/mL
AUC(0-inf) (in vivo [4]; po, 6.25 mg/kg): 9560 ng·h/mL
Cmax (in vivo [4]; po, 6.25 mg/kg): 640 ng/mL
Tmax (in vivo [4]; po, 6.25 mg/kg): 4 h
concentration at 12 h (in vivo [4]; po, 6.25 mg/kg): 370 ± 60 ng/mL
AUC(0-t) (in vivo [4]; po, 6.25 mg/kg, AUC0–12): 3110 ng·h/mL
AUC(0-t) (in vivo [4]; po, 6.25 mg/kg, AUC0–24): 8360 ng·h/mL
Cmax (in vivo [4]; po, 6.25 mg/kg, Cmax): 390 ng/mL
half-life (in vivo [4]; po, 6.25 mg/kg, t1/2): 7.8 h
AUC0–12 (in vivo [4]; po, 12 mg/kg): 15100 ng·h/mL
AUC0–24 (in vivo [4]; po, 12 mg/kg): 22520 ng·h/mL
AUC(0-inf) (in vivo [4]; po, 12 mg/kg): 28300 ng·h/mL
Cmax (in vivo [4]; po, 12 mg/kg): 1610 ng/mL
Tmax (in vivo [4]; po, 12 mg/kg): 6 h
concentration at 12 h (in vivo [4]; po, 12 mg/kg): 850 ± 220 ng/mL
AUC(0-t) (in vivo [4]; po, 12 mg/kg, AUC0–12): 7580 ng·h/mL
AUC(0-t) (in vivo [4]; po, 12 mg/kg, AUC0–24): 22500 ng·h/mL
Cmax (in vivo [4]; po, 12 mg/kg, Cmax): 900 ng/mL
half-life (in vivo [4]; po, 12 mg/kg, Half-life in plasma): ~8.3 h
half-life (in vivo [4]; po, 12 mg/kg, t1/2): 8.8 h
Accumulation factor for AUC (in vivo [4]; po, 7 days): ~2 fold
Accumulation factor for Cmax (in vivo [4]; po, 7 days): ~2 fold
AUC(0-inf) (in vivo [5]; both sexes, iv, 5 mg/kg): 11900 ± 2200 ng·h/mL
AUC(0-t) (in vivo [5]; both sexes, iv, 5 mg/kg): 10400 ± 1900 ng·h/mL
Vd (in vivo [5]; both sexes, iv, 5 mg/kg): 5.1 L/kg
clearance (in vivo [5]; both sexes, iv, 5 mg/kg): 7.5 mL/min/kg
half-life (in vivo [5]; both sexes, iv, 5 mg/kg): ~9.3 h
AUC(0-inf) (in vivo [5]; both sexes, po, 20 mg/kg): 16000 ng·h/mL
AUC(0-t) (in vivo [5]; both sexes, po, 20 mg/kg): 11500 ng·h/mL
Cmax (in vivo [5]; both sexes, po, 20 mg/kg): 810 ± 420 ng/mL
Tmax (in vivo [5]; both sexes, po, 20 mg/kg): 4 ± 2 h
bioavailability (in vivo [5]; both sexes, po, 20 mg/kg, Bioavailability): ~35%
half-life (in vivo [5]; both sexes, po, 20 mg/kg): ~15.2 h
Dose normalized AUC0–∞ to a 1-mg/kg dose (in vivo [5]; both, iv): ~2.4 µg·h/mL
t1/2 (in vivo [5]; both, iv, 5 mg/kg): 9.3 h

Reference: PMC5365645, “Preclinical Pharmacokinetics and Pharmacodynamic Target of SCY-078, a First-in-Class Orally Active Antifungal Glucan Synthesis Inhibitor, in Murine Models of Disseminated Candidiasis” (Antimicrobial Agents and Chemotherapy, 2017)
